Measurements from PubChem BioAssay (NCI).
“And” between values parts separate entries of the source, which are not always exact repeats. Equal entries are not always repeated.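 Method: 48-hour compound exposure of cells in 96-well plates, five concentrations, linear interpolation of endpoints. GI50 is the concentration that inhibits growth by half. TGI: concentration producing complete growth inhibition.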

Tests used:
Test in all cases: growth of human tumour cells (NCI), 48 h
[1] = system: RXF 393 renal
[2] = system: A498 renal
[3] = system: SF-295 CNS
[4] = system: KM12 colon
[5] = system: DMS 114 small cell lung
[6] = system: SK-MEL-28 melanoma
[7] = system: HOP-92 NSCLC
[8] = system: DMS 273 small cell lung
[9] = system: SF-539 CNS
[10] = system: TK-10 renal
[11] = system: UO-31 renal
[12] = system: U251 CNS
[13] = system: HT29 colon
[14] = system: HOP-62 NSCLC
[15] = system: IGROV1 ovarian
[16] = system: OVCAR-8 ovarian
[17] = system: UACC-62 melanoma
[18] = system: 786-0 renal
[19] = system: HCT-116 colon
[20] = system: NCI-H226 lung
[21] = system: NCI-H522 lung
[22] = system: SK-MEL-2 melanoma
[23] = system: SN12C renal
[24] = system: SNB-75 CNS
[25] = system: COLO 205 colon
[26] = system: XF 498 CNS
[27] = system: HOP-18 NSCLC
[28] = system: MALME-3M melanoma
[29] = system: CCRF-CEM leukemia
[30] = system: KM20L2 colon
[31] = system: M14 melanoma
[32] = system: SK-MEL-5 melanoma
[33] = system: A549 NSCLC
[34] = system: LXFL 529 NSCLC
[35] = system: SNB-78 CNS
[36] = system: NCI-H23 lung
[37] = system: OVCAR-5 ovarian
[38] = system: SW-620 colon
[39] = system: OVCAR-4 ovarian
[40] = system: HCC-2998 colon
[41] = system: M19-MEL melanoma
[42] = system: UACC-257 melanoma
[43] = system: MOLT-4 leukemia
[44] = system: K-562 leukemia
[45] = system: ACHN renal
[46] = system: EKVX NSCLC
[47] = system: SF-268 CNS
[48] = system: DLD-1 colon
[49] = system: OVCAR-3 ovarian
[50] = system: HCT-15 colon
[51] = system: HL-60(TB) leukemia
[52] = system: SK-OV-3 ovarian
[53] = system: SR leukemia
[54] = system: RPMI-8226 leukemia
[55] = system: CAKI-1 renal
[56] = system: LOX IMVI melanoma
[57] = system: NCI-H460 lung
[58] = system: SNB-19 CNS
[59] = system: RXF-631 renal

## O=C(Nc1ccc(Cl)cc1)c1cccc([N+](=O)[O-])c1O
[1]
  TGI: 6.67 µM
[2]
  TGI: 7.32 µM
[3]
  TGI: 15.5 µM
[4]
  TGI: > 62.4 µM
[5]
  TGI: 14.8 µM
[6]
  TGI: 39.6 µM
[7]
  TGI: 4.72 µM
[8]
  TGI: 23.3 µM
[9]
  TGI: > 74.1 µM
[10]
  TGI: > 44.4 µM
[11]
  TGI: 6.56 µM
[12]
  TGI: 48.5 µM
[13]
  TGI: > 73.1 µM
[14]
  TGI: 9.13 µM
[15]
  TGI: > 80.3 µM
[16]
  TGI: > 69.8 µM
[17]
  TGI: 17.6 µM
[18]
  TGI: > 56.7 µM
[19]
  TGI: 20 µM
[20]
  TGI: 7.95 µM
[21]
  TGI: 6.36 µM
[22]
  TGI: 12.5 µM
[23]
  TGI: > 74.7 µM
[24]
  TGI: 26.1 µM
[25]
  TGI: 10.5 µM
[26]
  TGI: 8.31 µM
[27]
  TGI: > 100 µM
[28]
  TGI: 9.97 µM
[29]
  TGI: 11.7 µM
[30]
  TGI: 98.5 µM
[31]
  TGI: 32.9 µM
[32]
  TGI: 4.86 µM
[33]
  TGI: > 100 µM
[34]
  TGI: 39.8 µM
[35]
  TGI: > 37.5 µM
[36]
  TGI: 6.55 µM
[37]
  TGI: > 100 µM
[38]
  TGI: > 100 µM
[39]
  TGI: > 100 µM
[40]
  TGI: 14.4 µM
[41]
  TGI: 9.07 µM
[42]
  TGI: 8.13 µM
[43]
  TGI: 10.1 µM
[44]
  TGI: 24.2 µM
[45]
  TGI: > 100 µM
[46]
  TGI: 14.8 µM
[47]
  TGI: > 85 µM
[48]
  TGI: > 100 µM
[49]
  TGI: 9.09 µM
[50]
  TGI: > 88.3 µM
[51]
  TGI: 7.18 µM
[52]
  TGI: 13.7 µM
[53]
  TGI: 31.5 µM
[54]
  TGI: 7.2 µM
[55]
  TGI: 17.1 µM
[56]
  TGI: > 100 µM
[57]
  TGI: > 53.5 µM
[58]
  TGI: > 50.9 µM

## COc1cc2c(c(OC)c1OC)-c1ccc(SC)c(=O)cc1[C@@H](NC(=O)c1ccc(OC(C)=O)cc1)CC2
[1]
  TGI: 0.0813 µM
[2]
  TGI: 0.0779 µM and 0.0202 µM
[4]
  TGI: 0.0407 µM
[5]
  GI50: 0.0144 µM
  TGI: 0.0336 µM
[6]
  GI50: 15 µM
  TGI: 60 µM
[7]
  TGI: 0.0311 µM
[8]
  TGI: > 100 µM
[9]
  TGI: 0.0357 µM
[10]
  GI50: 0.0113 µM
  TGI: 33.4 µM
[11]
  TGI: 73 µM
[12]
  TGI: 0.0544 µM
[13]
  TGI: 0.0653 µM
[14]
  GI50: 0.0126 µM
  TGI: 22.2 µM
[15]
  TGI: > 100 µM
[16]
  TGI: 12.1 µM
[17]
  TGI: 26.9 µM
[18]
  TGI: 12.9 µM
[19]
  TGI: 0.0514 µM and 0.015 µM
[20]
  TGI: 0.0528 µM
[23]
  TGI: 18.8 µM
[25]
  TGI: 0.0405 µM
[26]
  TGI: 0.0597 µM
[29]
  TGI: > 100 µM
[30]
  TGI: 0.0358 µM
[32]
  GI50: 0.0196 µM
[33]
  TGI: > 100 µM
[36]
  TGI: 0.049 µM
[37]
  TGI: 65.5 µM
[38]
  TGI: 31 µM
[39]
  GI50: 10.6 µM
  TGI: 23.1 µM
[40]
  TGI: 0.0549 µM
[41]
  TGI: > 100 µM
[59]
  TGI: 18.1 µM
[42]
  TGI: 19.2 µM
[43]
  TGI: > 100 µM
[44]
  TGI: 6.03 µM
[45]
  TGI: > 100 µM
[46]
  TGI: > 100 µM
[47]
  TGI: 24.8 µM
[48]
  TGI: 28.8 µM
[49]
  TGI: 0.034 µM
[51]
  TGI: 20.5 µM
[52]
  TGI: 0.0683 µM and 0.0201 µM
[53]
  GI50: 0.00773 µM
  TGI: 23.9 µM
[55]
  TGI: > 100 µM
[56]
  TGI: 0.0539 µM
[57]
  TGI: 0.0206 µM
[58]
  GI50: 0.0214 µM

## CCCCCCCCCCC(C)CCCCCCC(=O)OCC(COP(=O)([O-])OCC[N+](C)(C)C)OC(=O)CCCCCCC(C)CCCCCCCCCC (stereo unspecified)
[1]
  TGI: > 100 µM
[2]
  TGI: > 100 µM
[3]
  TGI: > 100 µM
[4]
  TGI: > 100 µM
[5]
  TGI: > 100 µM
[6]
  TGI: > 100 µM
[7]
  TGI: > 100 µM
[8]
  TGI: > 100 µM
[10]
  TGI: > 100 µM
[11]
  TGI: > 100 µM
[12]
  TGI: > 100 µM
[13]
  TGI: > 100 µM
[14]
  TGI: > 100 µM
[15]
  TGI: > 100 µM
[16]
  TGI: > 100 µM
[17]
  TGI: > 100 µM
[18]
  TGI: > 100 µM
[19]
  TGI: > 100 µM
[20]
  TGI: > 100 µM
[21]
  TGI: > 100 µM
[22]
  TGI: > 100 µM
[23]
  TGI: > 100 µM
[24]
  TGI: > 100 µM
[25]
  TGI: > 100 µM
[27]
  TGI: > 100 µM
[28]
  TGI: > 100 µM
[29]
  TGI: > 100 µM
[30]
  TGI: > 100 µM
[31]
  TGI: > 100 µM
[32]
  TGI: > 100 µM
[33]
  TGI: > 100 µM
[34]
  TGI: > 100 µM
[35]
  TGI: > 100 µM
[36]
  TGI: > 100 µM
[37]
  TGI: > 100 µM
[38]
  TGI: > 100 µM
[39]
  TGI: > 100 µM
[40]
  TGI: > 100 µM
[41]
  TGI: > 100 µM
[59]
  TGI: > 100 µM
[42]
  TGI: > 100 µM
[43]
  TGI: > 100 µM
[44]
  TGI: > 100 µM
[45]
  TGI: > 100 µM
[46]
  TGI: > 100 µM
[47]
  TGI: > 100 µM
[48]
  TGI: > 100 µM
[49]
  TGI: > 100 µM
[50]
  TGI: > 100 µM
[51]
  TGI: > 100 µM
[52]
  TGI: > 100 µM
[53]
  TGI: > 100 µM
[54]
  TGI: > 100 µM
[55]
  TGI: > 100 µM
[56]
  TGI: > 100 µM
[57]
  TGI: > 100 µM
[58]
  TGI: > 100 µM

## CN(C)CC(/C(Cc1ccccc1)=N\NC(=O)c1ccncc1)c1ccccc1 (stereo unspecified)
[1]
  TGI: > 100 µM
[3]
  TGI: 68.3 µM
[5]
  TGI: 81.8 µM
[6]
  TGI: > 100 µM
[7]
  TGI: > 100 µM
[9]
  TGI: > 100 µM
[10]
  TGI: > 100 µM
[13]
  TGI: > 100 µM
[14]
  TGI: > 100 µM
[15]
  TGI: > 100 µM
[16]
  TGI: > 100 µM
[17]
  TGI: > 100 µM
[18]
  TGI: > 100 µM
[20]
  TGI: > 100 µM
[21]
  TGI: > 100 µM
[22]
  TGI: 42.1 µM
[23]
  TGI: > 100 µM
[24]
  TGI: 92.8 µM
[25]
  TGI: > 100 µM
[26]
  TGI: > 100 µM
[28]
  TGI: 93.4 µM
[29]
  TGI: > 100 µM
[30]
  TGI: 92.3 µM
[31]
  TGI: > 100 µM
[32]
  TGI: 46.2 µM
[33]
  TGI: > 100 µM
[34]
  TGI: > 100 µM
[36]
  TGI: > 100 µM
[37]
  TGI: > 100 µM
[38]
  TGI: > 100 µM
[39]
  TGI: > 100 µM
[40]
  TGI: > 100 µM
[41]
  TGI: > 100 µM
[59]
  TGI: > 100 µM
[42]
  TGI: > 100 µM
[44]
  TGI: > 100 µM
[45]
  TGI: 97.7 µM
[46]
  TGI: 68.1 µM
[47]
  TGI: > 100 µM
[48]
  TGI: > 100 µM
[49]
  TGI: > 100 µM
[51]
  TGI: 32 µM
[52]
  TGI: > 100 µM
[54]
  TGI: 51.6 µM
[55]
  TGI: > 100 µM
[56]
  TGI: > 100 µM
[58]
  TGI: > 100 µM
